Data published in patent US20170292066A1, “Synthetic Acid Compositions Alternatives to Conventional Acids in the Oil and Gas Industry” (Fluid Energy Group Ltd., priority 2014, published 2017).

Test: Biodegradability

**Q.** For `Cl.NC(N)=O` [urea hydrochloride, Urea Hydrochloride], which Biodegradability is on record?
**A.** maintain the same biodegradability function
